The conditions of data set [1]: pH 5.5.
Data set [2] concerns HeLa cells. In kind it is cell-based, human. The settings on record: for antiproliferative effect at either pH: pH 6.
For the next data set, the target named is actin filaments. To be noted: read-out: Kd, binding to actin filaments; cited from earlier work.
Assay in data set [3]: not given
The source holds these as a separate data set.

A short description of data set [4]: Stopped-flow fluorescence and CD kinetics of insertion/folding and exit/unfolding. In kind it is physicochemical.
Another data set has as its system tumors. Details: species or system nude mice. The settings on record: mouse, in vivo.
The test system of data set [5] is HeLa cells.
In another data set the test system is HeLa tumors. To be noted: mouse, in vivo.
Another data set relates to HeLa-GFP cells. Briefly: Cellular uptake of nanogold (silver enhancement, image analysis). In kind it is cell-based, human. To be noted: 1 h.

Values joined by “and” are separate entries in the source; they are usually repeats but may differ in a detail not shown here. Equal entries are not always repeated. Where two headings read alike, the source gives them in different places. *1 amine or outer side, *2 acyl side, *3 side chain or, on linkers, in order; H or OH if unused. Where a SMILES comes first, the peptide text is derived from it. Bridges are numbered along the chain shown (N, C = ends). Where no end group is shown, it is not given here. [ ]: non-standard residue; d: D form. ξ: configuration not given here. X3 = CN(C)c1ccc2c(c1)Oc1cc(N(C)C)ccc1C2=C1C=CC(=NC(=S)NC[C@](C)(O)C[C@H](N[*:1])C(=O)[*:2])C=C1C(=O)O; X2 = CCCCCCCC/C=C\CCCCCCCC(=O)OC[C@](C)(O)C[C@H](N[*:1])C(=O)[*:2]; Trp(2-yl) = O=C([C@H](Cc1c([*:3])[nH]c2ccccc12)N[*:1])[*:2]; ξTrp(2-yl) = O=C(C(Cc1c([*:3])[nH]c2ccccc12)N[*:1])[*:2]; X1 = CC(O)(CO)CC(N[*:1])C(=O)[*:2]; cisHyp = O=C(O)[C@@H]1C[C@H](O)CN1; ξAsp(3ξ-OH) = NC(C(=O)O)C(O)C(=O)O; Hyp = O=C(O)[CH]1C[CH](O)CN1

For `CC[C@H](C)[C@H](NC(=O)[C@@H]1CCCN1C(=O)[C@H](CC(N)=O)NC(=O)[C@H](CCC(N)=O)NC(=O)[C@H](CCC(=O)O)NC(=O)[C@H](C)NC(=O)[C@H](C)N)C(=O)N[C@@H](Cc1ccc(O)cc1)C(=O)N[C@@H](Cc1c[nH]c2ccccc12)C(=O)N[C@@H](C)C(=O)N[C@@H](CCCNC(=N)N)C(=O)N[C@@H](Cc1ccc(O)cc1)C(=O)N[C@@H](C)C(=O)N[C@@H](CCC(=O)O)C(=O)N[C@@H](Cc1c[nH]c2ccccc12)C(=O)N[C@@H](CC(C)C)C(=O)N[C@@H](Cc1ccccc1)C(=O)N[C@H](C(=O)N[C@H](C(=O)N1CCC[C@H]1C(=O)N[C@@H](CC(C)C)C(=O)N[C@@H](CC(C)C)C(=O)N[C@@H](CC(C)C)C(=O)N[C@@H](CC(C)C)C(=O)N[C@@H](CC(=O)O)C(=O)N[C@@H](CC(C)C)C(=O)N[C@@H](C)C(=O)N[C@@H](CC(C)C)C(=O)N[C@@H](CC(C)C)C(=O)N[C@H](C(=O)N[C@@H](CC(=O)O)C(=O)N[C@@H](C)C(=O)N[C@@H](CC(=O)O)C(=O)N[C@@H](CCC(=O)O)C(=O)NCC(=O)N[C@H](C(=O)N[C@@H](CS)C(=O)NCC(=O)O)[C@@H](C)O)C(C)C)[C@@H](C)O)[C@@H](C)O` [D14E], the “pH 8 Solubility” value is recorded as “Y”.

As to `CC[C@H](C)[C@H](NC(=O)[C@@H]1CCCN1C(=O)[C@H](CC(N)=O)NC(=O)[C@H](CCC(N)=O)NC(=O)[C@H](CCC(=O)O)NC(=O)[C@H](C)NC(=O)[C@H](C)N)C(=O)N[C@@H](Cc1ccc(O)cc1)C(=O)N[C@@H](Cc1c[nH]c2ccccc12)C(=O)N[C@@H](C)C(=O)N[C@@H](CCCNC(=N)N)C(=O)N[C@@H](Cc1ccc(O)cc1)C(=O)N[C@@H](C)C(=O)N[C@@H](CC(=O)O)C(=O)N[C@@H](Cc1c[nH]c2ccccc12)C(=O)N[C@@H](CC(C)C)C(=O)N[C@@H](Cc1ccccc1)C(=O)N[C@H](C(=O)N[C@H](C(=O)N1CCC[C@H]1C(=O)N[C@@H](CC(C)C)C(=O)N[C@@H](CC(C)C)C(=O)N[C@@H](CC(C)C)C(=O)N[C@@H](CC(C)C)C(=O)N[C@@H](C)C(=O)N[C@@H](CC(C)C)C(=O)N[C@@H](C)C(=O)N[C@@H](CC(C)C)C(=O)N[C@@H](CC(C)C)C(=O)N[C@H](C(=O)N[C@@H](CC(=O)O)C(=O)N[C@@H](C)C(=O)N[C@@H](CC(=O)O)C(=O)N[C@@H](CCC(=O)O)C(=O)NCC(=O)N[C@H](C(=O)N[C@@H](CS)C(=O)NCC(=O)O)[C@@H](C)O)C(C)C)[C@@H](C)O)[C@@H](C)O` [D25A], the “pH 8 Solubility” value is reported as “N”.

`CC1NC(=O)C2CC(O)CN2C(=O)C2CSc3[nH]c4ccccc4c3CC(NC1=O)C(=O)NC(CC(C)(O)CO)C(=O)NC(C(C)C)C(=O)NC(C(O)C(=O)O)C(=O)N2` (centres unmarked) [phallacidin, reference compound] (cyclo([ξAsp(3ξ-OH)]C[Hyp]A[ξTrp(2-yl)][X1]V); thioether 2-5; configuration not given here): the “Log P (octanol-water partition coefficient)” value in data set [1] was −1.6. The “antiproliferative effect at either pH” value with HeLa cells [2] is “does not demonstrate an antiproliferative effect at either pH”.

What is called Kd is the concentration at which binding is half-saturated. Turning to `C[C@@H]1NC(=O)[C@H](C[C@@](C)(O)CNC(=S)N=C2C=CC(=C3c4ccc(N(C)C)cc4Oc4cc(N(C)C)ccc43)C(C(=O)O)=C2)NC(=O)[C@@H]2Cc3c([nH]c4ccccc34)SC[C@H](NC(=O)[C@@H]([C@H](C)O)NC1=O)C(=O)N1C[C@@H](O)C[C@H]1C(=O)N[C@@H](C)C(=O)N2` [phalloidin-TRITC] (cyclo(A[dT]C[cisHyp]A[Trp(2-yl)][X3]); thioether 3-6), the Kd on actin filaments is 40 nM. For the compound `CCCCCCCC/C=C\CCCCCCCC(=O)OC[C@](C)(O)C[C@@H]1NC(=O)[C@@H]2Cc3c([nH]c4ccccc34)SC[C@H](NC(=O)[C@@H]([C@H](C)O)NC(=O)[C@H](C)NC1=O)C(=O)N1C[C@@H](O)C[C@H]1C(=O)N[C@@H](C)C(=O)N2` [phalloidin-oleate] (cyclo(A[dT]C[cisHyp]A[Trp(2-yl)][X2]); thioether 3-6), the “Log P” value in data set [1] is on record as “+1.7”. Moreover, the results for the “inhibition of Hela cell proliferation rate” value with HeLa cells [2] (1 µM), in the data set on HeLa cells [2] (2 µM) and with HeLa cells [2] (4 µM) were 60%, 70% and 95%, respectively.

“AAEQNPIYWARYADWLFTTALLLLDLALLVDADEGT [P20A]”: the “Findings: solubility / aggregation” value in data set [3] (pH 8) is recorded as “Aggregates”. As a reminder, the pKa is the pH at which an ionisable group is half protonated. Higher therefore signals a weaker acid or stronger base. In the case of “AAEQNPIYWARYADWLFTTPLLLLDLALLVDADEGTCG [WT-Cys1]”, the pKa in “physchem” was 6.14. Regarding “AAEQNPIYWARYAEWLFTTPLLLLELALLVDADEGTCG [D14/25E]”, the “pH 8 Solubility” value is on record as “N”. The same measure, in the same setting: to “ACEQNPIYWARYAKWLFTTPLLLLKLALLVDADEGTG [K-pHLIP]” belongs “Y/N”. On the same count and under the same terms, to “ACEQNPIYWARYANWLFTTPLLLLNLALLVDADEGTG [N-pHLIP]” belongs “Y”. For “AEDQNDPI YWARYADWLFTTPLLLLELALLV EC--G-T-COOH [pHLIP-2E]”, in [4] (pH 8), the “A, frequency factor, first transition” value is 1.2 × 10^5; the “Ea, first transition” value was 6.0 kcal/mol; the “k1, rate constant” value is 0.20/5.00 s^−1 and 0.28/3.57 s^−1 and 0.34/2.94 s^−1 and 0.39/2.56 s^−1; the “t1, characteristic time” value is 0.20/5.00 s and 0.28/3.57 s and 0.34/2.94 s and 0.39/2.56 s. In [3], the “λmax, maximum position of fluorescence spectrum” value stood at 339.2 nm. Also, the “λmax, maximum position of fluorescence spectrum” value in [3] (pH 8) is 351.2 nm and 341.3 nm. In the case of “AEDQNPYWARYADWLFTTPLLLLDLALLVDCG [Fast1-Cys]”, in “physchem”, the pKa stood at 6.1. In the case of “AEQNPI YFARYADELFTTPLLLLDLALLW DADET-COOH [pHLIP-W3]”, in data set [4] (pH 3.6), the “characteristic time, first component, exit” value is reported as 0.06 s (14.9 s^−1); the “characteristic time, second component, exit” value is 0.35 s (2.88 s^−1); the “rate constant, first component, exit” value is given as 0.06 s (14.9 s^−1); the “rate constant, second component, exit” value is 0.35 s (2.88 s^−1). On to AEQNPIYWARYADWLFTTPL [Short-Cys], for which the pKa in the data set “physchem” worked out at 4.4. Consider “Ac-AAEQNPIYWARYADWLFTTPLLLLDLALLVDADEGTKCG [pHLIP-KC]”, for which the “pH 8 Solubility” value is on record as “Y”. This compound came in with a pKa in “physchem” of 6.16. “DDDEDNPIYWARYADWLFTTPLLLLHGALLVDADECT [2H3 or D3a]”: the “pH 8 Solubility” value is “Y”. Still for that read-out and setting: for “DDDEDNPIYWARYAHWLFTTPLLLLDGALLVDADECT [D3b]” the value was “Y”; for “DDDEDNPIYWARYAHWLFTTPLLLLHGALLVDADECT [2H2 or D2]”, “Y”; for “DDDEDNPIYWARYAHWLFTTPLLLLHGALLVNADECT [D1]”, “Y”.

As for “DDDEDNPIYWARYAHWLFTTPLLLLHGALLVNANECT [D0 or H2N2]”, the “pH 8 Solubility” value is on record as “Y”. On the same count and under the same terms, for “DDDEDNPIYWARYAHWLFTTPLLLLHGALLVNANECT [D0]” the value was “Y”. Still for that read-out and setting: for “GGEQNPIYWAQDYAWLFTTPLLLLDLALLVDADEGTCG [R11Q; D14UpUp]” the value was “Y”; for “GGEQNPIYWAQYDAWLFTTPLLLLDLALLVDADEGTCG [R11Q; D14Up]”, “Y”; for “GGEQNPIYWARYADWLFTTPLLLDLLALLVDADEGTCG [D25Up]”, “N”. The compound “GGEQNPIYWARYADWLFTTPLLLLDLALLVDADEGT [WT-1]” had a pKa in “physchem” of 6. “GGEQNPIYWARYADWLFTTPLLLLDLALLVDADEGTCG [WT-Cys3]”: the “pH 8 Solubility” value was “Y”.

For “GGEQNPIYWARYADWLFTTPLLLLDLALLVNANQGT [NNQ]”, the “pH 8 Solubility” value was “Y”. Same read-out and setting: for “GGEQNPIYWARYADWLFTTPLLLLLDALLVDADEGTCG [D25Down]” the value was “N”; for “GGEQNPIYWARYDAWLFTTPLLLLDLALLVDADEGTCG [D14Up]”, “Y”. On to “Gadolinium-tetraazacyclododecanetetraacetic acid [Gd-DOTA control]”, for which, in the data set with tumors, the “% T1 Change (3 hrs)” value is 5.27% and −3.05%; the “% T1 Change (24 hrs)” value is 10.7% and 5.02%; the “T1 3 hrs” value was 920.4 ms and 879.2 ms; the “T1 24 hrs” value was 967.6 ms and 952.4 ms. As to Phallacidin-(CH2)n—SH, n=4 [phallC4SH], the “Log P (octanol-water partition coefficient)” value in data set [1] is on record as −0.74. Regarding Phallacidin-(CH2)n—SH, n=6 [phallC6SH], the “antiproliferative effect at either pH” value with HeLa cells [2] is reported as “does not demonstrate an antiproliferative effect at either pH”. In the case of “Phallacidin-(CH2)n—SH, n=10 [phallC10SH]”, the “Log P (octanol-water partition coefficient)” value in data set [1] is “+1.28”.

For the compound aminophalloidin [reference compound], in the data set on M4A4 cells, the “inhibitory effect on M4A4 proliferation” value is listed as “no inhibitory effect”. Also, the “inhibitory effect on HeLa proliferation” value with HeLa cells [5] was “no inhibitory effect”. Consider “gold-pHLIP: 1.4 nm monomaleimido Nanogold conjugated to N-terminal Cys of pHLIP (ACEQNPIYWARYADWLFTTPLLLLDLALLVDADET) (AC(1.4 nm monomaleimido Nanogold)EQNPIYWARYADWLFTTPLLLLDLALLVDADET)”, for which the tumor/muscle ratio in the data set on HeLa tumors was 5.6. Moreover, in the data set with HeLa tumors (iv), the “gold in tumor versus gold nanoparticles alone (times)” value came to 6. Also, in the data set on HeLa-GFP cells (2 μM), the “cellular uptake at pH6.5 versus pH7.4 (times higher)” value is reported as 1.6. The “uptake of gold versus unmodified gold nanoparticles (times)” value with HeLa-GFP cells (pH6.5, 2 μM) is 6.4; in the data set on HeLa-GFP cells (pH7.4, 2 μM), 3. For the compound “pHLIP-S—S—(CH2)6-phallacidin [pHLIP-C6phall]”, in the data set with HeLa cells [2], the cell death result is listed as “about 60%”. For the same compound, the “antiproliferative effect at neutral pH” value with HeLa cells [2] (pH 7.4) is given as “no effect is observed”. On to phallacidin-(CH2)10NH2 [phallC10], for which the “Log P (octanol-water partition coefficient)” value in [1] is given as “+1.28”.
